Target: T1, PD brain-derived a-syn aggregates (Homo sapiens, UniProt P37840)
T1 construct: from tissue; host or cells: human PD donor brain, sarkosyl-insoluble 100,000 x g pellet
Experiment: Micro-radiobinding competition assay against Example-1 [^3H-1] (Table 8)
Type: binding
Details: for Competition at 100 nM (%): 100 nM non-radiolabelled example compound vs Example-1 [^3H-1] ligand; for Competition at 100 nM (%) / Competition at 1 μM (%): human PD brain-derived a-syn aggregates; for Competition at 1 μM (%): 1 μM non-radiolabelled example compound vs Example-1 [^3H-1] ligand
Protocol: PD brain-derived a-syn aggregates were spotted onto microarray slides. The slides were incubated with the Example-1 [^3H-1] at 6 nM or 20 nM and the example compounds (non-radiolabelled) at 1 μM and 100 nM. In some cases, the non-radiolabelled example compounds were further assessed for a range of different concentrations, varying from 0.05 nM to 2 μM. After incubation, slides were washed and scanned by a real-time autoradiography system (BeaQuant, ai4R). Quantification of the signal was performed by using the Beamage image analysis software (ai4R). […] All measurements were performed with at least two technical replicates. For compounds tested in more than one experiment, the mean of the replicates or K; values in independent experiments is reported.
Results: Example compounds were assessed for their potency to compete with the binding of Example-1 [^3H-1] ligand to PD patient brain-derived a-syn aggregates. Results of the micro-radiobinding competition assay for the example compounds tested are shown in Table 8 as: % competition at 1 μM and 100 nM.

SMILES	Competition at 100 nM (%)	Competition at 1 μM (%)	Ki (mean of Ki values in independent experiments using PD brain-derived homogenates from two different donors) [nM]
O=C1c2cn(-c3ccc(N4CC[C@H](F)C4)nc3)nc2CN1c1ccccc1 [Example 20]	48	90	–
O=C1c2cn(-c3ccc(N4CCCC4)nc3)nc2CN1c1nccnc1F [Example 42]	57	89	–
N#Cc1ccc(N2Cc3nn(-c4ccc(N5CCCC5)nc4)cc3C2=O)cc1F [Example 55]	11	38	–
Cc1cc(N2Cc3nn(-c4ccc(N5CC[C@@H](F)C5)nc4)cc3C2=O)ccn1 [Example 102]	59	68	–
Cn1cc(N2Cc3nn(-c4ccc(N5CCC[C@H](F)C5)nc4)cc3C2=O)cn1 [Example 121]	40	84	–
O=C1c2cn(-c3ccc(N4CCCC4)nc3)nc2CN1c1ccc(F)cn1 [Example 115]	92	98	–
Cc1ccccc1N1Cc2nn(-c3ccc(N4CC[C@H](F)C4)nc3)cc2C1=O [Example 32]	16	25	–
COc1cc(N2Cc3nn(-c4ccc(N5CC[C@H](F)C5)nc4)cc3C2=O)ccn1 [Example 106]	95	100	–
O=C1c2cn(-c3ccc(N4CC[C@@H](F)C4)nc3)nc2CN1c1ccc(O)cn1 [Example 162]	92	110	–
O=C1c2cn(-c3ccc(N4CC[C@H](F)C4)nc3)nc2CN1c1ccncc1O [Example 173]	12	54	–
O=C1c2cn(-c3ccc(N4CC[C@@H](F)C4)nc3)nc2CN1c1ncccn1 [Example 15]	61	91	–
N#Cc1cccc(N2Cc3nn(-c4ccc(N5CC[C@H](F)C5)nc4)cc3C2=O)c1 [Example 65]	64	–	–
O=C1c2cn(-c3ccc(N4CC[C@H](F)C4)nc3)nc2CN1c1ccns1 [Example 127]	71	86	–
Cc1c2c(nn1-c1ccc(N3CC[C@@H](F)C3)nc1)CN(c1cnn(C)c1)C2=O [Example 96]	24	39	–
O=C1c2cn(-c3ccc(N4CC[C@@H](F)C4)nc3)nc2CN1c1ccnc(O)c1 [Example 171]	48	–	–
O=C1c2cn(-c3ccc(N4CC[C@@H](F)C4)nc3)nc2CN1c1ccc(O)cc1 [Example 180]	77	96	–
O=C1c2cn(-c3ccc(N4CC[C@H](F)C4)nc3)nc2CN1c1cnsc1 [Example 132]	63	93	–
O=C1c2cn(-c3ccc(N4CC[C@H](F)C4)cc3)nc2CN1c1cccnc1 [Example 87]	67	92	15
Cc1ncccc1N1Cc2nn(-c3ccc(N4CC[C@H](F)C4)nc3)cc2C1=O [Example 13]	4	31	–
N#Cc1ccc(N2Cc3nn(-c4ccc(N5CC[C@H](F)C5)nc4)cc3C2=O)cc1 [Example 59]	86	–	–
CC(C)c1ccc(-n2cc3c(n2)CN(c2cncc(F)n2)C3=O)cn1 [Example 153]	31	57	–
O=C1c2cn(-c3ccc(N4CC[C@H](F)C4)nc3)nc2CN1c1ccc(O)cn1 [Example 165]	88	107	–
Cc1c2c(nn1-c1ccc(N3CC[C@@H](F)C3)nc1)CN(c1ccncc1)C2=O [Example 94]	18	70	–

SMILES	Competition at 100 nM (%)	Competition at 1 μM (%)	Ki (mean of Ki values in independent experiments using PD brain-derived homogenates from two different donors) [nM]
O=C1c2cn(-c3ccc(N4CC[C@@H](F)C4)nc3)nc2CN1c1ccccc1F [Example 69]	16	48	–
Cc1cccc(N2Cc3nn(-c4ccc(N5CC[C@H](F)C5)nc4)cc3C2=O)n1 [Example 83]	47	–	–
COc1ccc(N2Cc3nn(-c4ccc(N5CC[C@H](F)C5)nc4)cc3C2=O)cc1 [Example 30]	80	95	–
COc1cccc(N2Cc3nn(-c4ccc(N5CC[C@H](F)C5)nc4)cc3C2=O)n1 [Example 78]	60	–	–
Cc1c2c(nn1-c1ccc(N3CC[C@H](F)C3)nc1)CN(c1ccccn1)C2=O [Example 73]	33	66	–
O=C1c2cn(-c3ccc(N4CCOCC4)nc3)nc2CN1c1cncc(F)n1 [Example 141]	51	66	–
N#Cc1ccc(N2Cc3nn(-c4ccc(N5CC[C@@H](F)C5)nc4)cc3C2=O)cc1N [Example 24]	–	97	–
O=C1c2cn(-c3ccc(N4CC[C@H](F)C4)nc3)nc2CN1c1ccc(O)cc1 [Example 179]	80	95	–
N#Cc1cc(N2Cc3nn(-c4ccc(N5CCCC5)nc4)cc3C2=O)ccc1F [Example 46]	61	–	–
Cc1cc(N2Cc3nn(-c4ccc(N5CC[C@H](F)C5)nc4)cc3C2=O)ccn1 [Example 104]	86	98	–
Cc1cccc(N2Cc3nn(-c4ccc(N5CC[C@@H](F)C5)nc4)cc3C2=O)c1 [Example 61]	53	80	–
Cn1ccc(N2Cc3nn(-c4ccc(N5CC[C@@H](F)C5)nc4)cc3C2=O)n1 [Example 116]	71	97	–
Cc1ccc(N2Cc3nn(-c4ccc(N5CC[C@@H](F)C5)nc4)cc3C2=O)nc1 [Example 110]	75	105	–
N#Cc1ccc(-n2cc3c(n2)CN(c2cncc(F)n2)C3=O)cn1 [Example 155]	51	94	–
Cc1ccc(N2Cc3nn(-c4ccc(N5CC[C@H](F)C5)nc4)cc3C2=O)nc1 [Example 112]	85	105	–
O=C1c2cn(-c3ccc(N4CC[C@H](F)C4)nc3)nc2CN1c1ccccc1F [Example 71]	18	51	–
N#Cc1ccc(N2Cc3nn(-c4ccc(N5CC[C@@H](F)C5)nc4)cc3C2=O)nc1 [Example 33]	75	–	–
Cn1ccc(-n2cc3c(n2)CN(c2cccc(F)n2)C3=O)n1 [Example 145]	46	76	–
O=C1c2cn(-c3ccc(N4CCCC4)nc3)nc2CN1c1cnccc1F [Example 47]	39	–	–
CC(C)Oc1ccc(-n2cc3c(n2)CN(c2cccc(F)n2)C3=O)cn1 [Example 160]	51	73	–
Cc1c2c(nn1-c1ccc(N3CCCC3)nc1)CN(c1cccc(F)n1)C2=O [Example 144]	49	68	–
O=C1c2cn(-c3ccc(N4CC[C@H](F)C4)nc3)nc2CN1c1cncc(F)c1 [Example 92]	32	73	–
Cc1cccc(N2Cc3nn(-c4ccc(N5CC[C@H](F)C5)nc4)cc3C2=O)c1 [Example 38]	70	–	–
